Measured values published in ChEMBL document CHEMBL1201862, “PubChem BioAssay data set” (2004).
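Exposure lasted 48 hours, with cells grown in 96-well plates and compounds tested at five concentrations. At the GI50, growth is halved.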 Calls of active or inactive are those of the source. No stated cut-off is given here; in the data, active = GI50 up to about 1.1 µM and inactive = higher.

Experiments:
Assay in all cases: inhibition of tumour cell growth, NCI panel, 48 h
IGROV-1 = system: IGROV-1
SK-OV-3 = system: SK-OV-3
M14 = system: M14
TK-10 = system: TK-10
HCC 2998 = system: HCC 2998
HOP-92 = system: HOP-92
NCI-H522 = system: NCI-H522
MDA-N = system: MDA-N
PC-3 = system: PC-3
SK-MEL-28 = system: SK-MEL-28
OVCAR-4 = system: OVCAR-4
MDA-MB-231 = system: MDA-MB-231
SF-295 = system: SF-295
HCT-15 = system: HCT-15
Malme-3M = system: Malme-3M
A549 = system: A549
SR = system: SR
U-251 = system: U-251
SW-620 = system: SW-620
CAKI-1 = system: CAKI-1

Row | SMILES | GI50 (IGROV-1) | GI50 (SK-OV-3) | GI50 (M14) | GI50 (TK-10) | GI50 (HCC 2998) | GI50 (HOP-92) | GI50 (NCI-H522) | GI50 (MDA-N) | GI50 (PC-3) | GI50 (SK-MEL-28) | GI50 (OVCAR-4) | GI50 (MDA-MB-231) | GI50 (SF-295) | GI50 (HCT-15) | GI50 (Malme-3M) | GI50 (A549) | GI50 (SR) | GI50 (U-251) | GI50 (SW-620) | GI50 (CAKI-1)
1 | C[C@@H](Cl)[C@H]1CCCN(Cc2ccc(Br)cc2)C1 | > 12.5 µM (inactive) | > 12.5 µM (inactive) | > 12.5 µM (inactive) | > 12.5 µM (inactive) | > 12.5 µM (inactive) | > 12.5 µM (inactive) | > 12.5 µM (inactive) | > 12.5 µM (inactive) | > 12.5 µM (inactive) | > 12.5 µM (inactive) | > 12.5 µM (inactive) | > 12.5 µM (inactive) | > 12.5 µM (inactive) | > 12.5 µM | > 12.5 µM (inactive) | > 12.5 µM (inactive) | > 12.5 µM (inactive) | > 12.5 µM (inactive) | > 12.5 µM (inactive) | > 12.5 µM (inactive)
2 | N/N=C(\Nc1ccccc1)SCc1ccccc1 | > 100 µM (inactive) | > 100 µM (inactive) | > 100 µM (inactive) |  | > 100 µM (inactive) | > 100 µM (inactive) | > 100 µM (inactive) | > 100 µM (inactive) | > 100 µM (inactive) | > 100 µM (inactive) | > 100 µM (inactive) | > 100 µM (inactive) | > 100 µM (inactive) | > 100 µM | > 100 µM (inactive) | > 100 µM (inactive) | > 100 µM (inactive) | > 100 µM (inactive) | > 100 µM (inactive) | > 100 µM (inactive)
3 | Cc1ccc(-c2n[nH]c(=O)[nH]2)cc1 | > 100 µM (inactive) |  | > 100 µM (inactive) | > 100 µM (inactive) | > 100 µM (inactive) | 44.9 µM (inactive) | > 100 µM (inactive) | > 100 µM (inactive) | > 100 µM (inactive) | > 100 µM (inactive) | > 100 µM (inactive) | > 100 µM (inactive) | > 49 µM (inactive) | > 100 µM | > 100 µM (inactive) | > 100 µM (inactive) | > 100 µM (inactive) | > 100 µM (inactive) | > 100 µM (inactive) | > 100 µM (inactive)
4 | c1cc(CNCCN2CCNCC2)ccn1 | > 100 µM (inactive) | > 100 µM (inactive) | > 100 µM (inactive) | 20.3 µM (inactive) |  | > 100 µM (inactive) | > 100 µM (inactive) | > 100 µM (inactive) | > 100 µM (inactive) | > 100 µM (inactive) | > 100 µM (inactive) | > 100 µM (inactive) | > 100 µM (inactive) | > 100 µM | > 100 µM (inactive) | > 100 µM (inactive) | > 100 µM (inactive) | > 100 µM (inactive) | > 100 µM (inactive) | > 100 µM (inactive)
5 | CCOC(=O)c1ccc(OCc2nc3cc(C(F)(F)F)ccc3nc2-c2ccccc2)cc1 | > 100 µM (inactive) |  | > 100 µM (inactive) | > 100 µM (inactive) | > 100 µM (inactive) | > 100 µM (inactive) | > 100 µM (inactive) | > 100 µM (inactive) | > 100 µM (inactive) | > 100 µM (inactive) | > 100 µM (inactive) | > 100 µM (inactive) | > 100 µM (inactive) | > 100 µM |  | > 100 µM (inactive) | 42.1 µM (inactive) | > 100 µM (inactive) | > 100 µM (inactive) | > 100 µM (inactive)
6 | O=C(O)C(=Cc1ccc(-c2ccc([N+](=O)[O-])cc2)o1)C(=O)O | > 100 µM (inactive) | > 100 µM (inactive) | > 100 µM (inactive) | > 100 µM (inactive) | > 100 µM (inactive) |  | > 100 µM (inactive) | > 100 µM (inactive) | > 100 µM (inactive) | > 100 µM (inactive) |  | > 100 µM (inactive) | > 100 µM (inactive) | > 100 µM | > 100 µM (inactive) | > 100 µM (inactive) | > 100 µM (inactive) | > 100 µM (inactive) | > 100 µM (inactive) | > 100 µM (inactive)
7 | CC(=O)NCCCCN(CCCNC(C)=O)C(=O)CNS(=O)(=O)c1cccc2c(N(C)C)cccc12 | > 100 µM (inactive) | > 100 µM (inactive) | > 100 µM (inactive) | > 100 µM (inactive) | > 100 µM (inactive) | > 100 µM (inactive) | > 100 µM (inactive) | > 100 µM (inactive) | > 100 µM (inactive) | > 100 µM (inactive) | > 100 µM (inactive) | > 100 µM (inactive) | > 100 µM (inactive) | > 100 µM | > 100 µM (inactive) | > 100 µM (inactive) | > 100 µM (inactive) | > 100 µM (inactive) | > 100 µM (inactive) | 
8 | CC(C)(C)OC(=O)[C@@H]1ON2O[C@H](OC3CCCC3(c3ccccc3)c3ccccc3)C[C@H]3OC(=O)[C@@H]1[C@H]32 (stereo not given in full) | 38.7 µM (inactive) | > 100 µM (inactive) | 40.6 µM (inactive) | > 100 µM (inactive) |  |  | 32.2 µM (inactive) | 61.7 µM (inactive) | 26.8 µM (inactive) | 95.1 µM (inactive) | 14.9 µM (inactive) | > 100 µM (inactive) | > 100 µM (inactive) | 31.8 µM |  | 83.2 µM (inactive) | > 100 µM (inactive) | > 100 µM (inactive) | 85.7 µM (inactive) | 53.5 µM (inactive)
9 | Clc1ccc(/N=C/C=C/Nc2ccc(Cl)cn2)nc1 | 15 µM (inactive) | 21.8 µM (inactive) | 16.4 µM (inactive) | 19.1 µM (inactive) |  | 16.3 µM (inactive) | 14 µM (inactive) | 15.1 µM (inactive) | 14.5 µM (inactive) | 18.6 µM (inactive) | 7.52 µM (inactive) | 5 µM (inactive) | 16.3 µM (inactive) | 1.76 µM | 17.3 µM (inactive) | 14.5 µM (inactive) | 2.78 µM (inactive) | 8.26 µM (inactive) | 4.9 µM (inactive) | 9.82 µM (inactive)
10 | C=C1C(=O)C2=C[C@H]1C[C@H](O)C(=O)[C@]1(C)CCCC(C)(C)[C@H]1C[C@H]2O | 3.6 µM (inactive) | 12.8 µM (inactive) | 1.52 µM (inactive) | 0.787 µM (active) |  | 1.49 µM (inactive) | 0.0428 µM (active) | 1.93 µM (inactive) | 1.92 µM (inactive) | 1.73 µM (inactive) | 3.94 µM (inactive) | 1.32 µM (inactive) | 7.94 µM (inactive) | 0.406 µM | 0.83 µM (active) | 0.665 µM (active) | 0.358 µM (active) | 1.32 µM (inactive) | 0.583 µM (active) | 1.48 µM (inactive)
11 | CCOC(=O)c1ccc(/N=C2/C(=S)N(c3ccc(C(=O)OCC)cc3)C(=N)N2/N=C/c2ccccc2)cc1 | 30.6 µM (inactive) | 24.1 µM (inactive) | 11.8 µM (inactive) | 23.2 µM (inactive) | 21.8 µM (inactive) | 15.9 µM (inactive) | 2.34 µM (inactive) | 12.1 µM (inactive) | 2.61 µM (inactive) | > 10 µM (inactive) |  | 8.05 µM (inactive) | 26.7 µM (inactive) | 27.3 µM | 17.6 µM (inactive) | 30 µM (inactive) | 3.52 µM (inactive) | > 10 µM (inactive) | 1.51 µM (inactive) | 13.9 µM (inactive)
12 | C[C@H](CC[C@@H](O)C(C)(C)O)[C@H]1CC[C@@]2(C)[C@@H]3CC=C4[C@@H](CC[C@H](O)C4(C)C)[C@]3(C)C(=O)C[C@]12C [BRYODULCOSIGENIN] | > 50 µM (inactive) | 42.5 µM (inactive) | 29 µM (inactive) | > 50 µM (inactive) |  |  | 31.7 µM (inactive) | 22.9 µM (inactive) | 13.7 µM (inactive) | 24.2 µM (inactive) | > 50 µM (inactive) | > 50 µM (inactive) | > 50 µM (inactive) | 19.2 µM | > 50 µM (inactive) | 27.7 µM (inactive) | 23.1 µM (inactive) | 38.5 µM (inactive) | 22.8 µM (inactive) | 
13 | Cc1cc(-c2nc3ccc(F)cc3s2)ccc1NC(=O)[C@H](C)N | 2 µM (inactive) | 13.6 µM (inactive) | 1.95 µM (inactive) |  | 0.428 µM (active) | 10.7 µM (inactive) | 7.74 µM (inactive) | 2.61 µM (inactive) | 11.9 µM (inactive) | 15.4 µM (inactive) | 10.2 µM (inactive) | 10.4 µM (inactive) | 9.71 µM (inactive) | 3.79 µM | 21.3 µM (inactive) | 5.83 µM (inactive) | 2.07 µM (inactive) | 3.48 µM (inactive) | 3.83 µM (inactive) | 8.18 µM (inactive)
14 | O=C(NCCCl)N(O)C(=O)Nc1ccccc1 | > 100 µM (inactive) | > 100 µM (inactive) | > 100 µM (inactive) | > 100 µM (inactive) | > 100 µM (inactive) | > 100 µM (inactive) | > 100 µM (inactive) | > 100 µM (inactive) | > 100 µM (inactive) |  | > 100 µM (inactive) | 67.8 µM (inactive) | > 100 µM (inactive) | > 100 µM | > 100 µM (inactive) | > 100 µM (inactive) | > 100 µM (inactive) | > 100 µM (inactive) | > 100 µM (inactive) | > 100 µM (inactive)
15 | O=[N+]([O-])c1ccc(CN(CCCl)OCCCl)cc1 | 75.9 µM (inactive) | > 100 µM (inactive) | > 100 µM (inactive) | > 100 µM (inactive) | 84.1 µM (inactive) |  | 31.3 µM (inactive) | > 100 µM (inactive) | 26.8 µM (inactive) | > 100 µM (inactive) | 56.9 µM (inactive) | > 100 µM (inactive) | > 100 µM (inactive) | 91 µM | > 100 µM (inactive) | 67.6 µM (inactive) | 65 µM (inactive) | > 100 µM (inactive) | 91.2 µM (inactive) | 64.9 µM (inactive)
